In paper PMC10657792, “Downstream Allosteric Modulation of NMDA Receptors by 3-Benzazepine Derivatives” (Molecular Neurobiology, 2023):
Where “and” joins values, the source holds several entries; their conditions need not be identical. Equal values may be shown once.

Columns and labels:
GluN1a wt/ GluN2B N192A = GluN1a wt/ GluN2B N192A (Rattus norvegicus, UniProt P35439+Q00960, N192A); test: TEVC recording in X. laevis oocytes, GluN2B mutant screening; type: cell-based; details: for inhibition (%): GluN1-1a GluN2B N192A, single oocytes
[1] = target: GluN1a wt/ GluN2B N192A/F194A (Rattus norvegicus, UniProt P35439+Q00960, F194A/N192A); test: as above; type: cell-based
Chain of GluN1a wt/ GluN2B N192A/F194A (Q00960 27-1482 N192A/F194A, other chains not shown): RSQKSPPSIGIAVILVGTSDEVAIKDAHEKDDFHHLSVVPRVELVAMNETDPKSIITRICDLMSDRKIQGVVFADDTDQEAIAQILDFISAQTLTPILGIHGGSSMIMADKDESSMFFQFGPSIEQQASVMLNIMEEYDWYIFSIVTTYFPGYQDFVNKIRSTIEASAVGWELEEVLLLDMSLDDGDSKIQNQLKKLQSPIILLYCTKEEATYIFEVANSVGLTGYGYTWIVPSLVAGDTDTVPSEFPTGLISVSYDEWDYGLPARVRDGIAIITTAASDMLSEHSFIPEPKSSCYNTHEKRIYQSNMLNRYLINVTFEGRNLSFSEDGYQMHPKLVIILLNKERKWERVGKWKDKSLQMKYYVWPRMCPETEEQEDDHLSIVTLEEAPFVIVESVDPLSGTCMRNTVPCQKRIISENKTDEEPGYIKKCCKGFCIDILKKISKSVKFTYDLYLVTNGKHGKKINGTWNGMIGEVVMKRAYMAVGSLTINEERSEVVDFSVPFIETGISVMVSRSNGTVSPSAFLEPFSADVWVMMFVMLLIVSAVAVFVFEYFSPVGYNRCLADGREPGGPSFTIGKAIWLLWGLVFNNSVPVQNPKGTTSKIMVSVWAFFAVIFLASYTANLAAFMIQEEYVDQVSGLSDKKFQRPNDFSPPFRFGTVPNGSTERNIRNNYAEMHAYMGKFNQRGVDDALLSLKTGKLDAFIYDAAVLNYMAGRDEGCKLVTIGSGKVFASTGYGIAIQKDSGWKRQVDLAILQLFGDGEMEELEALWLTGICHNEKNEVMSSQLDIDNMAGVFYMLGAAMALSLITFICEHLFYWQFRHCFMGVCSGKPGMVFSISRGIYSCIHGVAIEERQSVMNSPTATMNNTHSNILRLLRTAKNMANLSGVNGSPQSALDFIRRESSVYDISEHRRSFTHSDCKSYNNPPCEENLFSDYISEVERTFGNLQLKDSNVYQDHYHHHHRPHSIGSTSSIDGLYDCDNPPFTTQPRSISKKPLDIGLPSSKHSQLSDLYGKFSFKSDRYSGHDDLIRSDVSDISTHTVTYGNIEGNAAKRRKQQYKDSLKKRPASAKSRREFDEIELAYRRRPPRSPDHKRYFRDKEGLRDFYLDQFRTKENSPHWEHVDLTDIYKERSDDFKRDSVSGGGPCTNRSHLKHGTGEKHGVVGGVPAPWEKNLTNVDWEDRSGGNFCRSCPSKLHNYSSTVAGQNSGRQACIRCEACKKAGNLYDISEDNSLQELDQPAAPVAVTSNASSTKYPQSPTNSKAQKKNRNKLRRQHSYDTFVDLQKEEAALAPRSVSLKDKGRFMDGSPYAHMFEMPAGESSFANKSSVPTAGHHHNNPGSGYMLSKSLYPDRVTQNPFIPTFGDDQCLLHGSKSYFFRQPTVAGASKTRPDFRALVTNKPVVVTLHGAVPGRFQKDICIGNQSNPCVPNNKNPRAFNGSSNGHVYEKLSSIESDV

Chain of GluN1a wt/ GluN2B N192A (Q00960 27-1482 N192A, other chains not shown): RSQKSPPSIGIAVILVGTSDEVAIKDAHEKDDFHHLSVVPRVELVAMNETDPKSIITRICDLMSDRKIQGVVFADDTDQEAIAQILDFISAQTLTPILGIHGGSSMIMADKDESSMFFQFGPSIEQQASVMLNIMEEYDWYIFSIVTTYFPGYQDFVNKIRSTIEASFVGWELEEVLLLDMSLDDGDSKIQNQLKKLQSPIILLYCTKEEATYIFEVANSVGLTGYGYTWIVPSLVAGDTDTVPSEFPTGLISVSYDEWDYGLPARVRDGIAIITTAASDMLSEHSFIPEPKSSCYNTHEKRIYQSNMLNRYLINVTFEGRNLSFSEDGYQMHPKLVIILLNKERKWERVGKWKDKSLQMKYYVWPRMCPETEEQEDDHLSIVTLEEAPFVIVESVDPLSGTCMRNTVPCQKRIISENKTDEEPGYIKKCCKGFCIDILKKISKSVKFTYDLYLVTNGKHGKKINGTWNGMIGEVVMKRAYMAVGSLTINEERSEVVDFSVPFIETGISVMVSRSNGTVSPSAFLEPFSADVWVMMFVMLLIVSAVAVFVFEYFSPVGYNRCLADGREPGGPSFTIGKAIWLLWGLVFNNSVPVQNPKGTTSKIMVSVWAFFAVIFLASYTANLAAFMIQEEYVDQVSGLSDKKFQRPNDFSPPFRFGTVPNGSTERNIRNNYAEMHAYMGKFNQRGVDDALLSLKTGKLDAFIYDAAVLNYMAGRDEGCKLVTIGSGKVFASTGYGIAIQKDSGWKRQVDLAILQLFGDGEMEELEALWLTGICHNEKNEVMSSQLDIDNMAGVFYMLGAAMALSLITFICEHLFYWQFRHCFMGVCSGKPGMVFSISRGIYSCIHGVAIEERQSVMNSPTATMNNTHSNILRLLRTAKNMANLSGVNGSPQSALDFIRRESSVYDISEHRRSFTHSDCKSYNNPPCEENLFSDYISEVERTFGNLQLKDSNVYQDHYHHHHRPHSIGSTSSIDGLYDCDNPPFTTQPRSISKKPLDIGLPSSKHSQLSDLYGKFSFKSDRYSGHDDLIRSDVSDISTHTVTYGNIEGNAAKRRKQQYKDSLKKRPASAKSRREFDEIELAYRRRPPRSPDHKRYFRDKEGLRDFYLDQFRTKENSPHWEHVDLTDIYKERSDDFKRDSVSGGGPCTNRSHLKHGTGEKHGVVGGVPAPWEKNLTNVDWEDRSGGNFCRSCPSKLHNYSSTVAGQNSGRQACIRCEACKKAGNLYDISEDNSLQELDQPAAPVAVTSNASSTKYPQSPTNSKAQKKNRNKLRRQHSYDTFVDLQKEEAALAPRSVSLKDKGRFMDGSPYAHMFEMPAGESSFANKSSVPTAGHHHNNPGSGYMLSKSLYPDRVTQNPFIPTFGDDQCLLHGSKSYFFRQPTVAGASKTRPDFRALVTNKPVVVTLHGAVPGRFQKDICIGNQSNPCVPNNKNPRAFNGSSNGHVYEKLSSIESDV

IC50 (GluN1a wt/ GluN2B N192A; agonists 10 µM glycine + 10 µM (S)-glutamate, fitted curve): 282 nM | Hill coefficient (GluN1a wt/ GluN2B N192A; fitted curve): 0.4 | inhibition at 1 µM ([1]; GluN1-1a GluN2B N192A/F194A, compound concentration 1 μM, single oocytes): 30.7% | inhibition (%) ([1]; GluN1-1a GluN2B N192A/F194A, compound concentration 1 μM, single oocytes, 1 µM): 27.3896% and 29.45% and 20.653% | inhibition at 30 µM ([1]; GluN1-1a GluN2B N192A/F194A, compound concentration 30 μM, single oocytes): 50.8% | inhibition (%) ([1]; GluN1-1a GluN2B N192A/F194A, compound concentration 30 μM, single oocytes, 30 µM): 42.6495% and 45.6455% and 35.2023% | Hill coefficient ([1]; fitted curve): 0.3
Structure (SMILES): Oc1ccc2c(c1)CCN(CCCCc1ccccc1F)C[C@@H]2O [(R)-OF-NB1]
inhibition (%) (GluN1a wt/ GluN2B N192A; compound concentration 1 μM, 1 µM): 66.1572% and 79.6651% and 73.3591% and 75.5102% and 40.4665% and 73.3363% and 63.7681% | inhibition (%) (GluN1a wt/ GluN2B N192A; compound concentration 10 μM, 10 µM): 77.2198% and 89.4737% and 79.5367% and 82.6531% and 48.1744% and 82.1493% and 73.43% | inhibition (%) (GluN1a wt/ GluN2B N192A; compound concentration 30 μM, 30 µM): 83.1878% and 94.0191% and 84.556% and 89.7959% and 61.6633% and 86.6457% and 82.1256% | inhibition (%) ([1]; GluN1-1a GluN2B N192A/F194A, compound concentration 10 μM, single oocytes, 10 µM): 48.3548% and 37.2275% and 43.7739% and 28.318%
